In paper PMC4076079, “Selective inhibitors of a PAF biosynthetic enzyme lysophosphatidylcholine acyltransferase 2” (Journal of Lipid Research, 2014):

Tests used:
mLPCAT1 = target: T1, mLPCAT1 (Mus musculus, UniProt Q3TFD2); test: acyltransferase activity assay, DPPC product; format: biochemical; conditions: 20 μM compound; microsomal fractions of nonstimulated CHO-S-PAFR cells; n = 3, mean ± SEM
T1 construct: expressed in transfected cells; host or cells: CHO-S-PAFR cells, microsomal fraction
T1 sequence (Q3TFD2 1-534): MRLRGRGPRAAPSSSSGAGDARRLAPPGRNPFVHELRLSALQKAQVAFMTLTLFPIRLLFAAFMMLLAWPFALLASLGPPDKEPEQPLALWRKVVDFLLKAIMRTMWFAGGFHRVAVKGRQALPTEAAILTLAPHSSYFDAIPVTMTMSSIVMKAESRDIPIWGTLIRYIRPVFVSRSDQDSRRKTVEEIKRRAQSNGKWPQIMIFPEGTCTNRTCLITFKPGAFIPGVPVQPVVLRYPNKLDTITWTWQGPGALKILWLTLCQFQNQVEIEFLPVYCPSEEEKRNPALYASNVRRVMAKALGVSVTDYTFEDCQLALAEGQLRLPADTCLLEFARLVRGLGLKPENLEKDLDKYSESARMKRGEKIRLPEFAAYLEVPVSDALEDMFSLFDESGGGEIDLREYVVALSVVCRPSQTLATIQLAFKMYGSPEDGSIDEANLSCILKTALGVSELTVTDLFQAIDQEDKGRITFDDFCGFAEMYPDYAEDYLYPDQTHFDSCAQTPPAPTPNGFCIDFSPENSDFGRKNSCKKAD
Protocol: Microsomal protein fractions (0.5 μg) supplemented with the indicated compound concentrations were added to the reaction mixture containing 100 mM Tris-HCl (pH 7.4), 1 μM CaCl2, 0.015% Tween-20, and two substrates. For acetyltransferase activity, the substrates were 1 mM acetyl-CoA and 5 μM d4-lyso-PAF; for the acyltransferase activity of LPCAT1 or LPCAT2, the substrates were, respectively, palmitoyl-CoA and d31-16:0 LPC or arachidonoyl-CoA and d4-lyso-PAF (all 5 μM). Each lysophospholipid contained fatty acid at the sn-1 position. After incubation at 37°C for 5 min, the reactions were stopped by adding 300 μl methanol containing 17:0 LPC or 14:0/14:0 PC as an internal standard. Deuterium-labeled products were analyzed by LC-MS/MS (Waters, Milford, MA and Thermo Scientific, Waltham, MA). […]
arachidonoyl-CoA, 5 µM; palmitoyl-CoA, 5 µM; d4-lyso-PAF, 5 µM; and d31-LPC, 5 µM. […]
deuterium-labeled products were measured by LC-MS/MS. […]
Step 7 screening: species-specific differences
To evaluate the effects on the activity of mouse or human LPCAT1 and LPCAT2, each microsomal fraction was obtained using CHO-S-PAFR cells with or without mcPAF (200 nM) stimulation for 5 min. Acetyltransferase and acyltransferase assays were performed with 20 µM of each compound. Percentage inhibition was calculated in each

[1] = cell viability assay (WST-8); format: cell-based, mouse; conditions: mouse, RAW-mLPCAT2 cells (RAW264.7 cells transfected with mLPCAT2), 36 h treatment, WST-8, data not shown, read-out: cytotoxicity IC50 (cell viability)
Protocol: (§1) Cell viability was measured using a modified MTT [3-(4,5-dimethylthiazol-2-yl)-2,5-diphenyltetrazolium bromide] dye reduction assay using WST-8 [2-(2-methoxy-4-nitrophenyl)-3-(4-nitrophenyl)-5-(2,4-disulfophenyl)-2H-tetrazolium, monosodium salt; Dojindo Molecular Technologies, Inc., Kumamoto, Japan] according to the manufacturer’s instructions. […] or RAW-mLPCAT2 cells were seeded in 96-well plates (1 × 10^4 cells/well) for 8 h and then treated with a compound for 36 h. WST-8 was added for another 2 h and the 450 nm absorbance was measured using a microplate reader (Bio-Rad). Cell viability was expressed as a percentage of vehicle-treated control values. To observe the effects of the incubation time on cell viability, 0.4 × 10^4 RAW-mLPCAT2 cells were treated with compounds for 1 or 6 h before the WST-8 assay.
(§2) Step 8 screening: cell viability assay
(§3) Wild-type RAW264.7 cells and RAW264.7 cells transfected with mLPCAT2 or control plasmid were used. Cells were cultured for 36 h with 0, 0.06, 0.2, 0.6, 2, 6, and 20 µM of compounds in 96-well plates and assayed for viability with WST-8. […]
(§4) The data were normalized to each positive control (100% activation). Percentage inhibition or IC50 were determined in each screening step. To assess screening quality, the percentage coefficient of variance and the Z’ factor was calculated for each plate or each assay as described previously (2).

RAW-mLPCAT2 cells = test: cell viability assay (WST-8); format: cell-based, mouse; conditions: Mus musculus, 1 h pretreatment
Protocol: as §1, §2, §3, §4

PLA2 = PLA2 assay; format: biochemical, mouse; conditions: 20 μM compound, soluble protein fraction of peritoneal macrophages; data not shown
Protocol: PAF-AH and PLA2 activities were determined as previously described ([3]). Briefly, a soluble protein fraction of peritoneal macrophages was incubated with 20 μM of each compound at 37°C for 30 min in a total volume of 0.1 ml. For the PAF-AH assay, the reaction mixture contained 2.5 μg protein, 50 mM Tris-HCl (pH 7.4), 5 mM EDTA, 5 mM 2-mercaptoethanol, and 1 μM d4-PAF. For the PLA2 assay, 10 μg protein was incubated in buffer containing 100 mM Tris-HCl (pH 7.4), 1 mg/ml BSA, 4 mM CaCl2, 1 mM DTT, and 2 μM 16:0/20:4 alkyl-PC. A cytosolic PLA2 inhibitor, pyrrophenone (Sigma-Aldrich), was used as a positive control. The reactions were stopped with 0.27 ml of chloroform/methanol (1:2, v/v), followed by the sequential addition of an internal standard (17:0 LPC or d4-lyso-PAF), 0.11 ml chloroform, and 0.1 ml water. Lipids were extracted using the Bligh and Dyer method ([26]). The PAF-AH and PLA2 activities were measured by detecting d4-lyso-PAF and nonlabeled lyso-PAF, respectively, using LC-MS/MS.

Row | Compound | percentage inhibition, product DPPC, mLPCAT1 (mLPCAT1) [percentage] | IC50 at 36 h [1] [µM] | IC50 (RAW-mLPCAT2 cells) [µM] | PLA2 activity (PLA2)
1 | CC(C)OC(=O)c1ccc(N2C(=O)C(Cl)=C(Nc3ccccc3O)C2=O)cc1 [TSI-07] | 36.3 ± 5.7 | > 20 | > 60 | –
2 | CC(C)OC(=O)c1ccc(N2C(=O)C(Cl)=C(Cl)C2=O)cc1 [TSI-01, propan-2-yl 4-(3,4-dichloro-2,5-dioxopyrrol-1-yl)benzoate] | 28.2 ± 4.0 | > 20 | > 60 | not PLA2 activity
3 | CCCOC(=O)c1ccc(N2C(=O)C(Cl)=C(Cl)C2=O)cc1 [TSI-10] | 14.8 ± 10.9 | > 20 | > 60 | –
4 | CCCCOC(=O)c1ccc(N2C(=O)C(Cl)=C(Cl)C2=O)cc1 [TSI-11, butyl 4-(3,4-dichloro-2,5-dioxopyrrol-1-yl)benzoate] | 12.2 ± 20.5 | > 20 | > 60 | –
